Earlier results as cited in patent publication US4535248A, “Method for detecting aflatoxin in almonds” (priority 1984, dated 1985).

Test system: rats
Details: for estimated effective dose, hepatocarcinogens (for comparison): similar estimates for other hepatocarcinogens

**Q.** Which “effective dose for the induction of liver tumors” value (rat, in vivo) does the source give for `COc1cc2c(c3oc(=O)c4c(c13)CCC4=O)[C@@H]1C=CO[C@@H]1O2` [B1] here?
**A.** approximately 10 mg per day

**Q.** With `CN(C)c1ccc(N=Nc2ccccc2)cc1` [butteryellow] as the compound, how does the “estimated effective dose, hepatocarcinogens (for comparison)” value read?
**A.** 9,000 mg/day

**Q.** With `CN(C)N=O` [dimethylnitrosamine] as the compound, how does the “estimated effective dose, hepatocarcinogens (for comparison)” value read?
**A.** 750 mg/day
